The results in this text go back to patent US10226464B2, “Small molecule NF-κB inhibitors” (ImmuneTarget, Inc., priority 2015, dated 2019).

Experiment [1] concerns NF-κB. The experiment is described as follows: NF-κB GFP Assay (NFκB/Jurkat/GFP transcriptional reporter cell line). The conditions noted are these: Homo sapiens; NF-κB/Jurkat/GFP reporter cells, TNF-α 5 ng/ml, 24 hours; read-out: NF-KB GFP IC50. It is filed as cell-based. The protocol: NFκB/Jurkat/GFP transcriptional reporter cell line was obtained from SBI System Biosciences. NF-κB/Jurkat/GFP™ Reporter cells (5×10^5 cells) were plated at a concentration of 1 million cells/ml into each well of a 24-well plate. TNF-α (5 ng/ml) was added. Compounds were added via serial dilutions to corresponding wells. After 24 hours, 100 μl of the cells were transferred to a well of a Costar® UV plate (96 well, No lid, w/ UV Transparent Flat Bottom, Corning, N.Y., Cat#3635) and the intensity of GFP fluorescence was measured (Excitation 485+/−20, Emission 528+/−20) in a Synergy™ HT Multi-Detection Microplate Reader (BioTech, Winooski, Vt.). The intensities of GFP measured were plotted against the […].

The target in experiment [2] is c-Rel protein (Homo sapiens (Human), UniProt Q04864). The experiment is described as follows: Electrophoretic Mobility Shift Assay (EMSA), Rel/NF-κB DNA binding inhibition. The conditions noted are these: 10 nM c-Rel protein, phosphor-labeled CD28RE oligonucleotide. As to the method: Electrophoretic Mobility Shift Assay (EMSA)
DNA binding reaction (20 μL) was carried out in 1×DNA Binding Buffer (10 mM Tris, 40 mM NaCl, 1 mM EDTA, 4% glycerol) with 10 nM c-Rel protein and 0.5 ng phosphor-labeled CD28RE oligonucleotide for 10 minutes at room temperature in 96-well plates. Test compounds, in serial dilutions, were added into each well, and further incubated for 15 minutes before loading onto native 5% polyacrylamide gel. Electrophoresis proceeded for 2.5 hours at 160V. Radioactive signals were quantified using Phospho-Imager. IC50 of compounds of example 1 to 75 were determined by quantifying the intensity of Rel/NF-κB inhibition in EMSA using phospho-imager. An example of EMSA data of the present invention is shown for compound 6 in FIG. 2.

Sequence of c-Rel protein (Q04864 whole entry): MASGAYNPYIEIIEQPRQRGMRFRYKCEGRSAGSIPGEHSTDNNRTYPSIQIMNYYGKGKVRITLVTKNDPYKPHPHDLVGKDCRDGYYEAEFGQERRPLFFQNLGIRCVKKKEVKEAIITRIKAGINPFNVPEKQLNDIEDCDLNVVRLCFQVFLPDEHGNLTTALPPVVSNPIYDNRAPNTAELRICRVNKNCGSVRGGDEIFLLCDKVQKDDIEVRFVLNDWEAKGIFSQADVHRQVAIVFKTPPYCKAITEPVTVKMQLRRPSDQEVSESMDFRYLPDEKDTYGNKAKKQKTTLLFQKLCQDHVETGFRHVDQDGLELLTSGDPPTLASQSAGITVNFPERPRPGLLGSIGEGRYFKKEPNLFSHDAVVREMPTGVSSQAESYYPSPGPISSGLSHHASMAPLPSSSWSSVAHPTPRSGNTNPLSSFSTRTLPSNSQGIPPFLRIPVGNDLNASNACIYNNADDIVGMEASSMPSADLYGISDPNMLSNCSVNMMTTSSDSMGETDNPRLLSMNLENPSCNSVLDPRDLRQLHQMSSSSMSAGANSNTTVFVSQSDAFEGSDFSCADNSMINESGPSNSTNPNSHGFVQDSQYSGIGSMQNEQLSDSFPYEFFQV

Regarding `CCCCCCOc1ccc2cc3c(=O)[nH]c(=O)nc-3oc2c1Cl` [Compound 44], the concentration for half-maximal inhibition (IC50) (in general, the concentration that gives 50% inhibition) in experiment [1] was below 3 µM; in experiment [2], below 0.5 µM.

With `CCCCOc1ccc2cc3c(=O)[nH]c(=O)nc-3oc2c1F` [Compound 45], the IC50 in experiment [1] was below 5 µM; in experiment [2] it was below 0.5 µM.

Take `CCCCCCOc1ccc2cc3c(=O)[nH]c(=O)nc-3oc2c1F` [Compound 46]: the IC50 in experiment [1] was below 5 µM; in experiment [2], below 0.5 µM.

Take `CC(C)CCCOc1ccc2cc3c(=O)[nH]c(=O)nc-3oc2c1F` [Compound 47]: the concentration for half-maximal inhibition (IC50) was below 5 µM in experiment [1] and below 1 µM in experiment [2].

For the compound `CC(C)COc1ccc2cc3c(=O)[nH]c(=O)nc-3oc2c1F` [Compound 48], the half-maximal inhibitory concentration (IC50) in experiment [1] was below 5 µM; in experiment [2], below 0.5 µM.

Regarding `CCOc1ccc2cc3c(=O)[nH]c(=O)nc-3sc2c1` [Compound 49, 8-ethoxy-2H-thiochromeno[2,3-d]pyrimidine-2,4(3H)-dione], the concentration for half-maximal inhibition (IC50) in experiment [1] was below 5 µM; in experiment [2], below 1 µM.

As for `CCCCOc1ccc2cc3c(=O)[nH]c(=O)nc-3oc2c1` [Compound 50], the IC50 is below 5 µM in experiment [1] and below 1 µM in experiment [2].

For the compound `CC(=O)OCCCCOc1ccc2cc3c(=O)[nH]c(=O)nc-3oc2c1` [Compound 51], the IC50 in experiment [1] was below 5 µM; in experiment [2], below 1 µM.

For `CCCCCCCOc1ccc2cc3c(=O)[nH]c(=O)nc-3oc2c1F` [Compound 52], the half-maximal inhibitory concentration (IC50) was below 5 µM in experiment [1] and below 0.5 µM in experiment [2].

Turning to `O=C(O)CCCCCOc1ccc2cc3c(=O)[nH]c(=O)nc-3oc2c1Cl` [Compound 53, 6-((9-chloro-2,4-dioxo-3,4-dihydro-2H-chromeno[2,3-d]pyrimidin-8-yl)oxy)hexanoic acid], the IC50 in experiment [1] is below 20 µM; in experiment [2], below 5 µM.

Turning to `O=C(O)CCCOc1ccc2cc3c(=O)[nH]c(=O)nc-3oc2c1Cl` [Compound 55], the IC50 is below 20 µM in experiment [1] and below 5 µM in experiment [2].

As for `O=C(O)COc1ccc2cc3c(=O)[nH]c(=O)nc-3oc2c1Cl` [Compound 56], the half-maximal inhibitory concentration (IC50) in experiment [1] is below 20 µM; in experiment [2] it was below 5 µM.

Take `COC(=O)CCCCOc1ccc2cc3c(=O)[nH]c(=O)nc-3oc2c1Cl` [Compound 57]: the IC50 in experiment [1] is below 20 µM; in experiment [2], below 5 µM.

`CC(=O)OCCCCCCOc1ccc2cc3c(=O)[nH]c(=O)nc-3oc2c1Cl` [Compound 58]: the figures for the IC50 in experiment [1] and in experiment [2] were below 20 µM and below 5 µM, respectively.

As for `CC(=O)OCCCOc1ccc2cc3c(=O)[nH]c(=O)nc-3oc2c1Cl` [Compound 59], the IC50 is below 20 µM in experiment [1] and below 5 µM in experiment [2].

Take `CC(=O)OCCCCOc1ccc2cc3c(=O)[nH]c(=O)nc-3oc2c1Cl` [Compound 60, 4-((9-chloro-2,4-dioxo-3,4-dihydro-2H-chromeno[2,3-d]pyrimidin-8-yl)oxy)butyl acetate]: the IC50 in experiment [1] is below 20 µM; in experiment [2], below 5 µM.

Regarding `COCCOCCOc1ccc2cc3c(=O)[nH]c(=O)nc-3oc2c1` [Compound 61, 8-(2-(2-methoxyethoxy)ethoxy)-2H-chromeno[2,3-d]pyrimidine-2,4(3H)-dione], the 50% inhibitory concentration (IC50) in experiment [1] was below 5 µM; in experiment [2], below 1 µM.

Regarding `COCCOCCOc1ccc2cc3c(=O)[nH]c(=O)nc-3oc2c1Cl` [Compound 62], the IC50 was below 5 µM in experiment [1] and below 1 µM in experiment [2].

As to `COCCOCCOc1ccc2cc3c(=O)[nH]c(=O)nc-3oc2c1F` [Compound 63], the IC50 is below 5 µM in experiment [1] and below 1 µM in experiment [2].

For `COCCOCCOc1cc2oc3nc(=O)[nH]c(=O)c-3cc2cc1Cl` [Compound 64], the results for the IC50 in experiment [1] and in experiment [2] were below 5 µM and below 1 µM, respectively.

Turning to `COCCOCCOc1cc2oc3nc(=O)[nH]c(=O)c-3cc2cc1F` [Compound 65], the half-maximal inhibitory concentration (IC50) was below 5 µM in experiment [1] and below 1 µM in experiment [2].

As to `COCCCCOc1ccc2cc3c(=O)[nH]c(=O)nc-3oc2c1Cl` [Compound 66, 9-chloro-8-(4-methoxybutoxy)-2H-chromeno[2,3-d]pyrimidine-2,4(3H)-dione], the IC50 in experiment [1] was below 5 µM; in experiment [2] it was below 1 µM.

For `COCCCCOc1ccc2cc3c(=O)[nH]c(=O)nc-3oc2c1` [Compound 67], the concentration for half-maximal inhibition (IC50) in experiment [1] is below 5 µM; in experiment [2], below 1 µM.

`COCCCCOc1ccc2cc3c(=O)[nH]c(=O)nc-3oc2c1F` [Compound 68]: the half-maximal inhibitory concentration (IC50) in experiment [1] is below 5 µM; in experiment [2], below 1 µM.

Take `COCCCCOc1cc2oc3nc(=O)[nH]c(=O)c-3cc2cc1Cl` [Compound 69]: the IC50 was below 5 µM in experiment [1] and below 1 µM in experiment [2].

On to `COCCCCOc1cc2oc3nc(=O)[nH]c(=O)c-3cc2cc1F` [Compound 70], for which the results for the IC50 in experiment [1] and in experiment [2] were below 5 µM and below 1 µM, respectively.

As to `COCCOCCCOc1ccc2cc3c(=O)[nH]c(=O)nc-3oc2c1` [Compound 71], the IC50 in experiment [1] was below 5 µM; in experiment [2], below 1 µM.

Regarding `COCCOCCCOc1ccc2cc3c(=O)[nH]c(=O)nc-3oc2c1Cl` [Compound 72], the IC50 in experiment [1] is below 5 µM; in experiment [2], below 1 µM.

Consider `COCCOCCCOc1ccc2cc3c(=O)[nH]c(=O)nc-3oc2c1F` [Compound 73], for which the results for the IC50 in experiment [1] and in experiment [2] were below 5 µM and below 1 µM, respectively.

For `COCCOCCCOc1cc2oc3nc(=O)[nH]c(=O)c-3cc2cc1Cl` [Compound 74], the IC50 in experiment [1] was below 5 µM; in experiment [2], below 1 µM.

For the compound `COCCOCCCOc1cc2oc3nc(=O)[nH]c(=O)c-3cc2cc1F` [Compound 75, 7-fluoro-8-(3-(2-methoxyethoxy)propoxy)-2H-chromeno[2,3-d]pyrimidine-2,4(3H)-dione], the half-maximal inhibitory concentration (IC50) in experiment [1] is below 5 µM; in experiment [2], below 1 µM.
